Key:
[1] = system: cell lines derived from chromic myeloid leukemia (CML) patients and cell lines and primary cells derived from myeloproliferative neoplasm (MPN) patients; details: background statement; cited from earlier work
[2] = system: bleomycin-induced pulmonary fibrosis; test: Bleomycin-induced pulmonary fibrosis mouse model, intravenous Tegavivint; assay type: in vivo, C57BL/6 wild-type mice; details: 50 mg/kg biw tail-vein injection
Method: (§1) In a pilot study, Tegavivint at 50 mg/kg was administered biw (twice a week) via tail-vein injection to C57BL/6 wild-type mice. Bleomycin was administered to the mice intratracheally on day 0 to induce pulmonary fibrosis, and Tegavivint or the vehicle (5% dextrose in water) was administered on days 6, 10, 14, 18 and 21. The purpose of this experiment was to evaluate the effect of systemically-administered Tegavivint on bleomycin-induced pulmonary fibrosis in vivo.

[3] = system: CTNNB1, EGR1, NRG1 and WISP1 mRNA levels; test: TaqMan gene expression analyses in DD180, PF180 and CT38 cells; assay type: cell-based, human
Method: (§2) Tegavivint (BC-2059) powder was reconstituted it in 100% dimethyl sulfoxide (DMSO) to a 10_mM stock solution. The stock was diluted to 100 nM in serum-free media (α minimal essential medium, αMEM), and further diluted to 100 pM in serum-free αMEM immediately before the analyses were performed. Serial dilutions from 100 pM down to 0.78 pM were assessed in various assays. 0.001% DMSO in αMEM was used as the vehicle control, and αMEM alone was used as an untreated control, in a subset of analyses.
Gene expression analyses were assessed in triplicate on a Real-Time PCR ABI Prism 7500. Total RNA samples were derived from syngeneic DD and PF cells cultured from the explant tissues from one patient with Dupuytren's disease (DD180 and PF 180) and 1 patient with no history of Dupuytren's disease (CT38) as a normal allogeneic control. RNA quality was assessed on an Agilent 2100 Bioanalyzer and 2 μg of high quality total RNA was reverse transcribed into cDNA first strand using the High-Capacity cDNA Archive Kit (Applied Biosystems) in accordance with the manufacturer's instructions. TaqMan gene expression assays were used to measure CTNNB1, EGR1, NRG1 and WISP1 mRNA levels after 48 hrs of treatment in cells cultured on type-1 collagen coated 6 well trays. The ΔΔCT method was used after confirmation of parallel PCR amplification efficiencies of target and housekeeping genes PCR reactions were carried out under the following conditions: Initial denaturation at 95° C. for 5 min followed by cycles of denaturation (95° C. for 15 sec), primer annealing (60° C. for 1 min) and transcript extension ([…]) for 40 cycles.

DD180 cells = test: Fibroblast populated collagen lattice (FPCL) contraction assay; assay type: cell-based, human; details: ≤25 pM
Method: as §2
Fibroblast populated collagen lattice assays were performed on primary palmar fascia fibroblasts derived from the fibrotic palmar fascia of one patient with Dupuytren's disease (DD180) using the protocol described in Raykha, C., Crawford, J., Gan, B. S., Fu, P., Bach, L. A., and O'Gorman, D. B. (2013) IGF-II and IGFBP-6 regulate cellular contractility and proliferation in Dupuytren's disease. Biochimica et biophysica acta. 1832, 1511-9.

[4] = system: syngeneic primary palmar fascia fibroblasts derived from visibly non-fibrotic palmar fascia (PF249 cells); test: Alamar Blue proliferation/viability assay, PF249 cells; assay type: cell-based, human; details: for proliferation/viability: PF249 cells, 48 and 72 hrs relative to 24 hrs
Method: as §2
Proliferation/viability analyses were performed in triplicate on primary palmar fascia fibroblasts derived from the fibrotic palmar fascia (DD cells) of 2 patients with Dupuytren's disease (DD249, DD77) and syngeneic primary palmar fascia fibroblasts derived from visibly non-fibrotic palmar fascia (PF cells) from these patients (PF249, PF77). Cells were cultured on type-1 collagen coated 96 well trays for these analyses to better replicate substrate interactions in vivo. Two independent assays were used for these analyses: Alamar Blue assays for analyses up to 72 hrs in cells derive from 1 patient, and Water Soluble Tetrazolium-(WST-1) assays for analyses up to 24 hrs in cells derived from the other patients. Significant effects of treatment on proliferation over time were detected by ANOVA repeated measures.

[5] = system: bleomycin-induced pulmonary fibrosis; test: Bleomycin-induced pulmonary fibrosis mouse model, intranasal Tegavivint; assay type: in vivo, C57BL/6 wild-type mice; details: 5 mg/kg biw intranasal
Method: as §1, with “In another” for “In a”, “at 5” for “at 50”, “via intranasal delivery” for “via tail-vein injection”, “of topically-administered” for “of systemically-administered”

[6] = Tegavivint alone (no bleomycin)
[7] = ≤25 pM, 48 hrs, DD180, PF180, CT38 cells
[8] = Topical Tegavivint alone (no bleomycin)

In the case of Tegavivint, the “apoptosis and growth inhibition” value [1] is given as “undergo apoptosis and growth inhibition”, the pulmonary compliance ([2]; Tegavivint after bleomycin) is given as “partially restored” and the “total soluble collagen content in lung tissue (Sircol assay)” value ([2]; Tegavivint after bleomycin) is given as “completely restored the collagen level to the same as vehicle-only controls”. For the same substance, the pulmonary compliance [2, 6] was “no effect”, the “total soluble collagen content in lung tissue (Sircol assay)” value [2, 6] was “no effect” and the “effects on the expression of genes that associate with nuclear β-catenin” value ([3]; cells treated with ≥25 pM) was “No discernible effects”. The “effects on gene expression” value ([3]; ≤25 pM) was “did not identify any consistent effects”, the CTNNB1 expression [3, 7] was “no evidence of a compensatory increase” and the EGR1 expression levels [3, 7] was “did not see any evidence of BC-2059-induced changes”. For the same substance, the NRG1 expression levels [3, 7] was “did not see any evidence of BC-2059-induced changes”, the WISP1 expression levels [3, 7] was “did not see any evidence of BC-2059-induced changes” and the effects on contractility (DD180 cells) was “did not identify any consistent effects”. The proliferation/viability ([4]; 25 pM) was “proliferated to significantly greater cell numbers”, the proliferation/viability ([4]; 50 pM) was “proliferated to significantly greater cell numbers” and the cytotoxic concentrations ([4]; syngeneic fibroblasts from visibly unaffected palmar fascia, both proliferation/viability assays and visual inspection) was greater than 100 pM. For the same substance, the pulmonary compliance ([5]; Tegavivint after bleomycin, compared to bleomycin only) was “showed a trend towards increased compliance”, the soluble collagen content ([5]; Tegavivint after bleomycin, compared with bleomycin-only) was “significantly decreased the collagen level” and the pulmonary compliance [5, 8] was “caused an increase in compliance”. For the same substance, the soluble collagen content [5, 8] was “showed a slight increase in collagen”.
